Source: patent US20210106566A1, “PHARMACEUTICAL COMPOSITION FOR TREATING AND/OR PREVENTING PERIPHERAL NEUROPATHY OR SPINAL CORD INJURY” (NATIONAL UNIVERSITY CORPORATION NAGOYA UNIVERSITY, priority 2015, published 2021)

Key:
JNK1/2/3 [1] = assay: Western blot of JNK1/2/3 phosphorylation in primary motor neurons; assay type: cell-based, mouse
Method: Zonisamide (0, 10, or 20 μmol/L) was added to primary motor neurons 4 hours after the beginning of culture. The cells were rinsed with a buffer (50 mmol/L HEPES pH 7.0, 150 mmol/L NaCl, 1% glycerol, 1% TritonX-100, 1.5 mmol/L MgCl2, 1 mmol/L EGTA, 100 mmol/L NaF, 10 mmol/L sodium pyrophosphate, […], 1 mmol/L PMSF, and 1 mmol/L sodium orthovanadate (V)) at days 2 and 3. Total protein was dissolved in 1× Laemmli buffer, separated on a 10% SDS polyacrylamide gel, and transferred to a polyvinylidene fluoride membrane (Immobilon-P, Millipore). The membrane was washed with Tris-buffered physiological saline with 0.05% Tween 20 (TBS-T) and blocked with TBS-T containing 3% skim milk at room temperature for 1 hour. The membrane was incubated with any of anti-Erk1/2 (#4696, Cell Signaling), anti-phosphorylated Erk1/2 (#4370, Cell Signaling), or anti-phosphorylated JNK1/2/3 (#4668, Cell Signaling) antibody (diluted at 1:1000) at 4° C. overnight. The membrane was washed with TBS-T for 10 minutes three times and incubated with […] secondary antibody conjugated to horseradish peroxidase (HRP, GE Healthcare, 1:6000) at room temperature for 1 hour. The blot was detected with Amersham ECL Western blotting detection reagent (GE Healthcare) and quantified with ImageJ program (http://imagej.nih.gov/ij/index.html).

JNK1/2/3 [2] = assay: JNK1/2/3 phosphorylation in NSC34 cells; assay type: cell-based, mouse
[3] = system: Bdnf, Ngf, Ntf4, Ntrk1, Ntrk2, Map2, Mapt, Gap43; assay: Mouse sciatic nerve autologous transplantation model: mRNA in sciatic nerve segment; assay type: in vivo; conditions: sciatic nerve segment distal to the distal transection site, 8 weeks after surgery
Source text: Adult male C57BL/6J mice (8 weeks old; 19.5-22.0 g) were purchased from Charles River. The mice were anesthetized with isoflurane and underwent gluteal muscle incision under a sterile condition to expose the sciatic nerve in the left leg. The sciatic nerve was cut at the following two sites (1) and (2): (1) the site 3 mm distal to the first bifurcation of biceps femoris (hereinafter referred to as proximal transection site) (2) the site 3 mm distal to the proximal transection site (hereinafter referred to as distal transection site) The excised nerve segment with a length of 3 mm was confirmed to be completely cut at the two sites. The perineurium was sutured with nylon thread (10-0 black) at the proximal transection site and the distal transection site under a microscope. The remaining thread was used as a marker for finding the nerve transection site in the sacrifice of the mice. In order to reduce DMSO toxicity, a solution of 60 mg/mL zonisamide in 100% DMSO was prepared and the solution was diluted in olive oil to give a solution of 3 mg/mL zonisamide in 5% DMSO. The control solution (5% DMSO) or zonisamide (3 mg/mL×about 0.2 mL) at 30 mg/kg/day was administered to the stomach using a disposable probe needle (flexible type, Fuchigami) once a day for 1 to 8 weeks from the end of surgery until sacrifice. Myelin sheath formation in the sciatic nerve was analyzed in six mice in each group. One week after the sciatic nerve autologous transplantation, the sciatic nerve was transected at “the proximal transection site” and “the site 3 mm distal to the distal transection site” to excise a nerve segment with a length of 6 mm. Subsequently, the nerve segment was fixed in 2% paraformaldehyde/2.5% glutaraldehyde in 0.2 mol/L sodium cacodylate buffer pH 7.3 overnight, treated with 2% osmium tetroxide for 3 hours, and dehydrated in ethanol. After epon embedding, a semithin section (with a thickness of 1 μm) was cut at the position 0.7 mm distal to the distal transection site, stained with alkaline Toluidine blue (Sigma), and examined under a microscope (FSX100, Olympus). The number and area of myelinated axons in the sciatic nerve were manually measured using ImageJ software in a blinded fashion. Eight weeks after sciatic nerve autologous transplantation, the entire gastrocnemius muscle and a sciatic nerve segment between the distal transection site and the site 3 mm distal to the distal transection site were isolated for total RNA extraction. Similar sciatic nerve segment was also isolated from the hindlimb without transected sciatic nerve. The mRNA expression levels of Bdnf, Ngf, Ntf4, Ntrk1, Ntrk2, Map2, Mapt, Gap43, Chrne, Colq, and Rapsn were quantified in a manner similar to Example 5.

NS(=O)(=O)Cc1noc2ccccc12 [Zonisamide, 3-sulfamoylmethyl-1,2-benzisoxazole]
phosphorylation level of JNK1/2/3 (JNK1/2/3 [1]): did not affect
phosphorylation level of JNK1/2/3 (JNK1/2/3 [2]): slightly increased
expression level of Bdnf [3]: unchanged
gene expression level of Ngf [3]: increased
gene expression level of Ntf4 [3]: increased
mRNA level of Gap43 [3]: elevated
mRNA level of Map2 [3]: elevated
mRNA level of Mapt [3]: elevated
mRNA level of Ntrk1 [3]: increased
mRNA level of Ntrk2 [3]: increased
